Values quoted from earlier work as cited in patent publication US20100331420A1, “Combination Therapies for the Treatment of Obesity” (priority 2009, published 2010).

Conditions: published studies of each weight loss medication
In the case of `CCN[C@@H](C)Cc1cccc(C(F)(F)F)c1` [dexfenfluramine], the “weight loss of body weight for drug compared with placebo” value (“weight loss … compared with placebo” for short) is given as “about 5%”.
For `CCCCCCCCCCC[C@@H](C[C@@H]1OC(=O)[C@H]1CCCCCC)OC(=O)[C@H](CC(C)C)NC=O` [orlistat], the “weight loss … compared with placebo” value is given as “about 5%”.
In the case of `CC(C)CC(N(C)C)C1(c2ccc(Cl)cc2)CCC1` (stereo not drawn) [sibutramine], the “weight loss … compared with placebo” value is listed as “about 5%”.
